Test results reported in patent publication US10927123B2, “Modulators of the beta-3 adrenergic receptor useful for the treatment or prevention of disorders related thereto” (Arena Pharmaceuticals, Inc., priority 2016, dated 2021).

Target: Beta-3 Adrenergic Receptor (Homo sapiens (Human), UniProt P13945)
Assay: HTRF cAMP antagonist assay (IC50 determination)
Type: cell-based
Details: CHO-K1 cells stably expressing recombinant receptor; antagonism of isoproterenol at EC90; cAMP readout
Method: HTRF cAMP assays were performed according to manufacturer's instructions (Cisbio, cAMP Dynamic 2 Assay Kit; #62AM4PEJ). CHO-K1 cells stably expressing recombinant receptor were harvested and suspended in warm PBS to make a 300,000 cells/mL stock. This cell suspension was dispensed into 384 well assay plates (PerkinElmer ProxiPlate #6008280) at 5 μL per well (1500 cells/well) along with a cAMP standard curve.
Compounds were dissolved and serially diluted (5-fold) in DMSO to generate a 10-point dose response stock. The stock was then diluted 100-fold in assay buffer (PBS containing 1 mM IBMX) before a volume of 2.5 μL was added to the cells (the final, top concentration of compound in the dose-response is typically 10 or 100 μM). After a brief incubation, 2.5 μL of isoproterenol stock, prepared at a concentration 4 times its EC90 at the receptor of interest, was added to the wells. The EC90 for isoproterenol, a beta-adrenergic agonist, was determined in separate experiments using standard methods to measure agonist potencies.
Following a 1-hour incubation at room temperature, 5 μL of cAMP-D2 Reagent diluted in Lysis Buffer was added to each well followed by 5 μL of Cryptate Reagent. Plates were further incubated at room temperature for 1 hour prior to reading. Time resolved fluorescence measurements were collected on a suitable, HTRF-capable plate reader.
Counts from the plate reader were fit to the cAMP standard curve on the assay plate in order to determine cAMP concentrations in each well, and these values were used to construct dose-response curves to obtain IC50 values.

Beta-3 Adrenergic Receptor, sequence (P13945 whole entry, species assumed): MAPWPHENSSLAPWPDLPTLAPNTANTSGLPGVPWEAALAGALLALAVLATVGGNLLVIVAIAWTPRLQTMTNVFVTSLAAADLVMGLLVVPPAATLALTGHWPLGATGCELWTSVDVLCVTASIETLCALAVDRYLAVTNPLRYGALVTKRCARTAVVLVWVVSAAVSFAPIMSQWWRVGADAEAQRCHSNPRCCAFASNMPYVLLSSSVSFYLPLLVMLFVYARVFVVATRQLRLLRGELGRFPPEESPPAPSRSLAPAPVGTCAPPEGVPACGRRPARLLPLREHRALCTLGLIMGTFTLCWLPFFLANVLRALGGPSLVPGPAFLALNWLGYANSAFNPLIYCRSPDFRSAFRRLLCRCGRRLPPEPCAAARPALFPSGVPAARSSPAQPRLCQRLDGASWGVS

SMILES | IC50 [nM]
CC(C)S(=O)(=O)c1cccc(OC[C@@H](O)CN[C@H]2COC3(CCN(S(=O)(=O)c4ccc5ncccc5c4)CC3)C2)c1 [Compound 113, (S)-1-(3-(isopropylsulfonyl)phenoxy)-3-((R)-8-(quinolin-6-ylsulfonyl)-1-oxa-8-azaspiro[4.5]decan-3-ylamino)propan-2-ol] | 26.8
CC(C)CCS(=O)(=O)c1cccc(OC[C@@H](O)CNC2COC3(CCN(S(=O)(=O)c4ccc5ccccc5c4)CC3)C2)c1 (stereo partly drawn) [Compound 11, (2S)-1-(3-(isopentylsulfonyl)phenoxy)-3-(8-(naphthalen-2-ylsulfonyl)-1-oxa-8-azaspiro[4.5]decan-3-ylamino)propan-2-ol] | 35.5
O=S(=O)(CCO)c1cccc(OC[C@@H](O)CN[C@@H]2COC3(CCN(S(=O)(=O)c4ccc5ccccc5c4)CC3)C2)c1 [Compound 34, (S)-1-(3-(2-hydroxyethylsulfonyl)phenoxy)-3-((S)-8-(naphthalen-2-ylsulfonyl)-1-oxa-8-azaspiro[4.5]decan-3-ylamino)propan-2-ol] | 31.2
CS(=O)(=O)c1cccc(OC[C@@H](O)CNC2COC3(CCN(S(=O)(=O)c4cccc(-c5ccccn5)c4)CC3)C2)c1 (stereo partly drawn) [Compound 45, (2S)-1-(3-(methylsulfonyl)phenoxy)-3-(8-(3-(pyridin-2-yl)phenylsulfonyl)-1-oxa-8-azaspiro[4.5]decan-3-ylamino)propan-2-ol] | 23.6
CS(=O)(=O)c1cccc(OC[C@@H](O)CNC2COC3(CCN(C(=O)Cc4csc(N)n4)CC3)C2)c1 (stereo partly drawn) [Compound 56, 2-(2-aminothiazol-4-yl)-1-(3-((S)-2-hydroxy-3-(3-(methylsulfonyl)phenoxy)propylamino)-1-oxa-8-azaspiro[4.5]decan-8-yl)ethanone] | 1990
O=S(=O)(CC1CC1(F)F)c1cccc(OC[C@@H](O)CNC2COC3(CCN(S(=O)(=O)c4ccc5ccccc5c4)CC3)C2)c1 (stereo partly drawn) [Compound 17, (2S)-1-(3-((2,2-difluorocyclopropyl)methylsulfonyl)phenoxy)-3-(8-(naphthalen-2-ylsulfonyl)-1-oxa-8-azaspiro[4.5]decan-3-ylamino)propan-2-ol] | 38.8
CS(=O)(=O)Cc1cccc(OC[C@@H](O)CN[C@H]2COC3(CCN(S(=O)(=O)c4cnc5ccccc5c4)CC3)C2)c1 [Compound 95, (S)-1-(3-(methylsulfonylmethyl)phenoxy)-3-((R)-8-(quinolin-3-ylsulfonyl)-1-oxa-8-azaspiro[4.5]decan-3-ylamino)propan-2-ol] | 21.1
O=S(=O)(c1cccc(OC[C@@H](O)CNC2COC3(CCN(S(=O)(=O)c4ccc5ccccc5c4)CC3)C2)c1)C1CCCC1 (stereo partly drawn) [Compound 19, (2S)-1-(3-(cyclopentylsulfonyl)phenoxy)-3-(8-(naphthalen-2-ylsulfonyl)-1-oxa-8-azaspiro[4.5]decan-3-ylamino)propan-2-ol] | 66.7

The remaining lines, values ahead:

IC50 [nM] | SMILES
27.3 | CCOc1ccc(-c2ccc(CN)cc2)cc1S(=O)(=O)N1CCC2(CC1)C[C@@H](NC[C@H](O)COc1cccc(S(=O)(=O)C3(CO)CC3)c1)CO2 [Compound 158, (S)-1-((R)-8-(4′-(aminomethyl)-4-ethoxybiphenyl-3-ylsulfonyl)-1-oxa-8-azaspiro[4.5]decan-3-ylamino)-3-(3-(1-(hydroxymethyl)cyclopropylsulfonyl)phenoxy)propan-2-ol]
63.8 | CCn1cc(S(=O)(=O)N2CCC3(CC2)C[C@@H](NC[C@H](O)COc2cccc(S(=O)(=O)C4CC4)c2)CO3)c(=O)c2ccc(F)cc21 [Compound 316, 3-((R)-3-((S)-3-(3-(cyclopropylsulfonyl)phenoxy)-2-hydroxypropylamino)-1-oxa-8-azaspiro[4.5]decan-8-ylsulfonyl)-1-ethyl-7-fluoroquinolin-4(1H)-one]
16.5 | C[C@H]1CN(C)c2cc(S(=O)(=O)N3CCC4(CC3)C[C@H](NC[C@H](O)COc3cccc(S(=O)(=O)C5CC5)c3)CO4)cnc2O1 [Compound 277, (S)-1-(3-(cyclopropylsulfonyl)phenoxy)-3-((S)-8-((S)-1,3-dimethyl-2,3-dihydro-1H-pyrido[2,3-b][1,4]oxazin-7-ylsulfonyl)-1-oxa-8-azaspiro[4.5]decan-3-ylamino)propan-2-ol]
40.8 | CN1CCOc2ncc(S(=O)(=O)N3CCC4(CC3)C[C@@H](NC[C@H](O)COc3cccc(S(=O)(=O)CCO)c3)CO4)cc21 [Compound 151, (S)-1-(3-(2-hydroxyethylsulfonyl)phenoxy)-3-((R)-8-(1-methyl-2,3-dihydro-1H-pyrido[2,3-b][1,4]oxazin-7-ylsulfonyl)-1-oxa-8-azaspiro[4.5]decan-3-ylamino)propan-2-ol]
10.2 | CC(F)S(=O)(=O)c1cccc(OC[C@@H](O)CN[C@H]2COC3(CCN(S(=O)(=O)c4ccc5ncccc5c4)CC3)C2)c1 (stereo partly drawn) [Compound 234, (2S)-1-(3-(1-fluoroethylsulfonyl)phenoxy)-3-((R)-8-(quinolin-6-ylsulfonyl)-1-oxa-8-azaspiro[4.5]decan-3-ylamino)propan-2-ol]
23.7 | O=S(=O)(c1cccc(OC[C@@H](O)CN[C@H]2COC3(CCN(S(=O)(=O)c4cnc5c(c4)CCCC5)CC3)C2)c1)C1CC1 [Compound 282, (S)-1-(3-(cyclopropylsulfonyl)phenoxy)-3-((R)-8-(5,6,7,8-tetrahydroquinolin-3-ylsulfonyl)-1-oxa-8-azaspiro[4.5]decan-3-ylamino)propan-2-ol]
59.2 | O=S(=O)(c1cccc(OC[C@@H](O)CN[C@H]2COC3(CCN(S(=O)(=O)c4c[nH]c5ncccc45)CC3)C2)c1)C1CC1 [Compound 307, (S)-1-((R)-8-(1H-pyrrolo[2,3-b]pyridin-3-ylsulfonyl)-1-oxa-8-azaspiro[4.5]decan-3-ylamino)-3-(3-(cyclopropylsulfonyl)phenoxy)propan-2-ol]
298 | Cc1c(Br)cccc1S(=O)(=O)N1CCC2(CC1)C[C@@H](NC[C@H](O)COc1cccc(S(=O)(=O)C3(CO)CC3)c1)CO2 [Compound 192, (S)-1-((R)-8-(3-bromo-2-methylphenylsulfonyl)-1-oxa-8-azaspiro[4.5]decan-3-ylamino)-3-(3-(1-(hydroxymethyl)cyclopropylsulfonyl)phenoxy)propan-2-ol]
350 | NC(=O)CS(=O)(=O)c1cccc(OC[C@@H](O)CN[C@H]2COC3(CCN(S(=O)(=O)c4ccc5ncccc5c4)CC3)C2)c1 [Compound 137, 2-(3-((S)-2-hydroxy-3-((R)-8-(quinolin-6-ylsulfonyl)-1-oxa-8-azaspiro[4.5]decan-3-ylamino)propoxy)phenylsulfonyl)acetamide]
107 | CCn1cc(S(=O)(=O)N2CCC3(CC2)C[C@H](NC[C@@H](O)COc2cccc(S(C)(=O)=O)c2)CO3)c(=O)c2ccccc21 [Compound 296, 1-ethyl-3-((S)-3-((R)-2-hydroxy-3-(3-(methylsulfonyl)phenoxy)propylamino)-1-oxa-8-azaspiro[4.5]decan-8-ylsulfonyl)quinolin-4(1H)-one]
26.9 | COc1ccc(S(=O)(=O)N2CCC3(CC2)C[C@@H](NC[C@H](O)COc2cccc(S(=O)(=O)C4(CO)CC4)c2)CO3)cc1Br [Compound 193, (S)-1-((R)-8-(3-bromo-4-methoxyphenylsulfonyl)-1-oxa-8-azaspiro[4.5]decan-3-ylamino)-3-(3-(1-(hydroxymethyl)cyclopropylsulfonyl)phenoxy)propan-2-ol]
